Results from PubChem BioAssay AID330 (DTP/NCI, 2004).
“And” between values parts separate entries of the source, which are not always exact repeats. Equal values may be shown once. Inconclusive results and toxic doses are left out. The calls were made as follows: active = survival T/C of 150% or more; inactive = T/C below 125% in these data.

Tested on: P388 leukemia ip, CD2F1 mice, survival T/C
Experiment: NCI In Vivo Anticancer Drug Screen. Data for tumor model P388 Leukemia (intraperitoneal) in CD2F1 (CDF1) mice
Conditions: endpoint: median survival time, higher = longer survival
Procedure, shortened: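 Mice carrying the transplanted tumor received test compound or vehicle. Survival was recorded in each group, and the value is the treated-group measurement divided by that of the vehicle-treated control group.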

[1] = dose: 50.0 mg/kg/injection, schedule: Q01DX005 (ip), vehicle: saline with Tween-80
[2] = dose: 100.0 mg/kg/injection, schedule: Q01DX005 (ip), vehicle: saline with Tween-80
[3] = dose: 200.0 mg/kg/injection, schedule: Q01DX005 (ip), vehicle: saline with Tween-80
[4] = dose: 25.0 mg/kg/injection, schedule: Q01DX009 (ip), vehicle: saline with Tween-80
[5] = dose: 50.0 mg/kg/injection, schedule: Q01DX009 (ip), vehicle: saline with Tween-80
[6] = dose: 100.0 mg/kg/injection, schedule: Q01DX009 (ip), vehicle: saline with Tween-80
[7] = dose: 50.0 mg/kg/injection, schedule: Q01DX005 (ip), vehicle: Klucel (hydroxypropylcellulose) (HPC)
[8] = dose: 100.0 mg/kg/injection, schedule: Q01DX005 (ip), vehicle: Klucel (hydroxypropylcellulose) (HPC)
[9] = dose: 200.0 mg/kg/injection, schedule: Q01DX005 (ip), vehicle: Klucel (hydroxypropylcellulose) (HPC)
[10] = dose: 50.0 mg/kg/injection, schedule: Q01DX009 (ip), vehicle: saline
[11] = dose: 100.0 mg/kg/injection, schedule: Q01DX009 (ip), vehicle: saline
[12] = dose: 200.0 mg/kg/injection, schedule: Q01DX009 (ip), vehicle: saline
[13] = dose: 200.0 mg/kg/injection, schedule: Q01DX009 (ip), vehicle: saline with Tween-80
[14] = dose: 25.0 mg/kg/injection, schedule: Q01DX009 (ip), vehicle: saline

Measured: T/C

O=C(CCCCCCCC(=O)Nc1ccc2[nH]c3ccccc3c(=O)c2c1)Nc1ccc2[nH]c3ccccc3c(=O)c2c1
inactive: [1] 107 % of control | [2] 107 % of control | [3] 106 % of control

COc1cc(/C=C/C2=C(C)C(=O)CC(c3cc(OC)cc(OC)c3)C2C)cc(OC)c1 (centres undefined)
inactive: dose: 12.5 mg/kg/injection, schedule: Q04DX003 (ip), vehicle: Klucel (hydroxypropylcellulose) (HPC) 100 % of control | dose: 25.0 mg/kg/injection, schedule: Q04DX003 (ip), vehicle: Klucel (hydroxypropylcellulose) (HPC) 98 % of control | dose: 50.0 mg/kg/injection, schedule: Q04DX003 (ip), vehicle: Klucel (hydroxypropylcellulose) (HPC) 95 % of control

O=C(NCCCCCCCCCCNC(=O)C12CC3CC(CC(C3)C1)C2)C12CC3CC(CC(C3)C1)C2
inactive: dose: 12.5 mg/kg/injection, schedule: Q01DX005 (ip), vehicle: saline with Tween-80 98 % of control | dose: 25.0 mg/kg/injection, schedule: Q01DX005 (ip), vehicle: saline with Tween-80 96 % of control | [1] 86 % of control and 91 % of control

NC(Cc1ccccc1Br)c1nn[nH]n1 (centres undefined)
inactive: [4] 97 % of control | [5] 104 % of control | [6] 114 % of control

CN(C)CCCCNc1c2c(nc3c(Cl)cccc13)CCC2
inactive: [1] 99 % of control | [2] 105 % of control | [3] 99 % of control

COc1cccc2c1C(=O)c1c(O)c3c(c(O)c1C2=O)C[C@@](O)(C(C)=O)C[C@@H]3OC1CC(N2CCSCC2)C(O)C(C)O1 (some centres undefined)
inactive: dose: 0.39 mg/kg/injection, schedule: Q04DX003 (ip), vehicle: distilled water + Tween-80 118 % of control | dose: 0.78 mg/kg/injection, schedule: Q04DX003 (ip), vehicle: distilled water + Tween-80 100 % of control | dose: 1.56 mg/kg/injection, schedule: Q04DX003 (ip), vehicle: distilled water + Tween-80 103 % of control | dose: 3.12 mg/kg/injection, schedule: Q04DX003 (ip), vehicle: distilled water + Tween-80 113 % of control | dose: 6.25 mg/kg/injection, schedule: Q04DX003 (ip), vehicle: distilled water + Tween-80 106 % of control | dose: 6.25 mg/kg/injection, schedule: Q04DX003 (ip), vehicle: water 105 % of control | dose: 12.5 mg/kg/injection, schedule: Q04DX003 (ip), vehicle: distilled water + Tween-80 123 % of control | dose: 12.5 mg/kg/injection, schedule: Q04DX003 (ip), vehicle: water 113 % of control | dose: 25.0 mg/kg/injection, schedule: Q04DX003 (ip), vehicle: distilled water + Tween-80 124 % of control | dose: 25.0 mg/kg/injection, schedule: Q04DX003 (ip), vehicle: water 123 % of control
active: dose: 50.0 mg/kg/injection, schedule: Q04DX003 (ip), vehicle: water 169 % of control

COC1=CC(=O)c2c(O)cc(OC)cc2C1=O
inactive: dose: 1.25 mg/kg/injection, schedule: Q01DX009 (ip), vehicle: saline with Tween-80 106 % of control and 116 % of control | dose: 2.5 mg/kg/injection, schedule: Q01DX009 (ip), vehicle: saline with Tween-80 101 % of control and 108 % of control | dose: 5.0 mg/kg/injection, schedule: Q01DX009 (ip), vehicle: saline with Tween-80 100 % of control and 114 % of control | dose: 10.0 mg/kg/injection, schedule: Q01DX009 (ip), vehicle: saline with Tween-80 100 % of control and 92 % of control | dose: 20.0 mg/kg/injection, schedule: Q01DX009 (ip), vehicle: saline with Tween-80 107 % of control and 92 % of control

CCN(/C=N/N(C)S(C)(=O)=O)c1ccccc1
inactive: [7] 104 % of control | [8] 116 % of control | [9] 118 % of control

O=C1Cc2ccccc2N1
inactive: [10] 116 % of control | [11] 107 % of control | [12] 105 % of control

CCC(C)(CC)OC(N)=O
inactive: [4] 100 % of control | [5] 91 % of control | [6] 109 % of control | [13] 105 % of control

CC1CC(=O)N1C(=O)CCN=C=S (centres undefined)
inactive: dose: 60.0 mg/kg/injection, schedule: Q01DX005 (ip), vehicle: saline with Tween-80 111 % of control | dose: 120.0 mg/kg/injection, schedule: Q01DX005 (ip), vehicle: saline with Tween-80 120 % of control | dose: 240.0 mg/kg/injection, schedule: Q01DX005 (ip), vehicle: saline with Tween-80 117 % of control

Nc1nc2ncc(CN(C(=O)CCl)c3ccc(C(=O)NC(CCC(=O)O)C(=O)O)cc3)nc2c(=O)[nH]1 (centres undefined)
inactive: dose: 50.0 mg/kg/injection, schedule: Q01DX009 (ip), vehicle: Klucel (hydroxypropylcellulose) (HPC) 95 % of control | dose: 100.0 mg/kg/injection, schedule: Q01DX009 (ip), vehicle: Klucel (hydroxypropylcellulose) (HPC) 107 % of control | dose: 200.0 mg/kg/injection, schedule: Q01DX009 (ip), vehicle: Klucel (hydroxypropylcellulose) (HPC) 108 % of control

CC(=O)OCc1c(-c2ccccc2)nc2sccn12
inactive: dose: 100.0 mg/kg/injection, schedule: Q01DX001 (ip), vehicle: Klucel (hydroxypropylcellulose) (HPC) 98 % of control | dose: 200.0 mg/kg/injection, schedule: Q01DX001 (ip), vehicle: Klucel (hydroxypropylcellulose) (HPC) 100 % of control

NC(Cc1ccc(Br)cc1)c1nn[nH]n1 (centres undefined)
inactive: [4] 104 % of control | [5] 100 % of control | [6] 100 % of control

O=C(NNc1ccccc1)c1ccccc1Cl
inactive: [14] 101 % of control | [10] 105 % of control | [11] 97 % of control | [12] 98 % of control

CCCCCCCCCCSCC(CO)NC(=O)/C=C/c1c(C)[nH]c(=O)[nH]c1=O (centres undefined)
active: dose: 100.0 mg/kg/injection, schedule: Q01DX009 (ip), vehicle: other 155 % of control
inactive: dose: 3.13 mg/kg/injection, schedule: Q01DX009 (ip), vehicle: distilled water + Tween-80 104 % of control | dose: 6.25 mg/kg/injection, schedule: Q01DX009 (ip), vehicle: distilled water + Tween-80 112 % of control | dose: 6.25 mg/kg/injection, schedule: Q01DX009 (ip), vehicle: other 114 % of control and 117 % of control | dose: 12.5 mg/kg/injection, schedule: Q01DX009 (ip), vehicle: distilled water + Tween-80 110 % of control | dose: 12.5 mg/kg/injection, schedule: Q01DX009 (ip), vehicle: other 114 % of control and 115 % of control | dose: 25.0 mg/kg/injection, schedule: Q01DX009 (ip), vehicle: distilled water + Tween-80 99 % of control and 110 % of control | dose: 50.0 mg/kg/injection, schedule: Q01DX009 (ip), vehicle: distilled water + Tween-80 106 % of control and 112 % of control | dose: 50.0 mg/kg/injection, schedule: Q01DX009 (ip), vehicle: other 93 % of control | dose: 100.0 mg/kg/injection, schedule: Q01DX009 (ip), vehicle: distilled water + Tween-80 108 % of control

CCCN1CCc2c([nH]c3cc(OC)ccc23)C1C (centres undefined)
inactive: [1] 100 % of control | [2] 108 % of control

CCC1CC(C)C(O)/C=C/C=C/CC(C)OC(=O)CC(O)C(OC)C1OC1OC(C)CC(O)(C(C)=O)C1O (centres undefined)
inactive: dose: 25.0 mg/kg/injection, schedule: Q01DX005 (ip), vehicle: Klucel (hydroxypropylcellulose) (HPC) 104 % of control | [7] 104 % of control | [8] 102 % of control | [9] 101 % of control

Nc1cncc2nnnn12
inactive: dose: 60.0 mg/kg/injection, schedule: Q01DX005 (ip), vehicle: Klucel (hydroxypropylcellulose) (HPC) 104 % of control | dose: 120.0 mg/kg/injection, schedule: Q01DX005 (ip), vehicle: Klucel (hydroxypropylcellulose) (HPC) 104 % of control | dose: 240.0 mg/kg/injection, schedule: Q01DX005 (ip), vehicle: Klucel (hydroxypropylcellulose) (HPC) 113 % of control

COC1/C=C/OC2(C)Oc3c(C)c(O)c4c(O)c(c(/C=N/N5C(C)CN(Cc6cccc(O)c6)CC5C)c(O)c4c3C2=O)NC(=O)/C(C)=C\C=C\C(C)C(O)C(C)C(O)C(C)C(OC(C)=O)C1C (centres undefined)
inactive: [5] 102 % of control | [6] 100 % of control | [13] 118 % of control

CS(=O)(=O)NC(=O)CCC(=O)Nc1ccc(Cl)cc1
inactive: dose: 100.0 mg/kg/injection, schedule: Q01DX001 (ip), vehicle: saline with Tween-80 100 % of control | dose: 200.0 mg/kg/injection, schedule: Q01DX001 (ip), vehicle: saline with Tween-80 97 % of control | dose: 400.0 mg/kg/injection, schedule: Q01DX001 (ip), vehicle: saline with Tween-80 96 % of control

CC1=CC(=O)[C@@H](O)[C@]2(C)[C@H]3[C@@]4(O)OC[C@]35[C@H]([C@@H](C)[C@H]4O)[C@@H](O)C(=O)O[C@@H]5C[C@@H]12
inactive: dose: 6.25 mg/kg/injection, schedule: Q01DX009 (ip), vehicle: saline 115 % of control | dose: 12.5 mg/kg/injection, schedule: Q01DX009 (ip), vehicle: saline 104 % of control | [14] 115 % of control
